Here are results for seven compounds from US4954483A, “Carboxylic acid ester derivatives or deglucoteicoplanin” (Gruppo Lepetit, S.p.A., priority 1984, dated 1990).

A short description of series [1]: Solubility characteristics.
Series [2] can be described thus: Potentiometric titration in methylcellosolve/water 4:1 (pKa, pH1/2). Type of series: physicochemical. The following applies: methylcellosolve/water 4:1 (v/v), excess 0.01 M HCl, titrated with 0.01 M NaOH. The procedure:
^(c) the samples are dissolved in methylcellosolve ®/water 4:1
(v/v), an excess of 0.01 M hydrogen chloride in the same mixture is added
thereto and the resulting solution is titrated with 0.01 M NaOH in the […]

Another series has as its system S. aureus TOUR. Briefly: MIC, standard agar-dilution test. Type of series: cell-based. The source says: Isosensitest broth (Oxoid) and Todd-Hewitt broth (Difco) are used for growing staphylococci and streptococci, respectively. […]
For another series, the system named is S. faecalis ATCC 7080. As to the kind of experiment: MIC, standard agar-dilution test. The following applies: inoculum about 10^4 CFU/ml. Type of series: cell-based. As to the method: (§1) Isosensitest broth (Oxoid) and Todd-Hewitt broth (Difco) are used for growing staphylococci and streptococci, respectively. Broth cultures are diluted so that the final inoculum is about 10^4 colony forming units/ml (CFU/ml).

A further series has as its system S. pneumoniae UC 41. As to the kind of experiment: MIC, standard agar-dilution test. Type of series: cell-based. Conditions: inoculum about 10^4 CFU/ml. As to the method: as §1
Series [3] concerns S. pyogenes C 203 SKF 13400. Briefly: MIC, standard agar-dilution test. Type of series: cell-based. The following applies: Todd-Hewitt broth, inoculum about 10^4 CFU/ml. As to the method:
as §1

The subject of series [4] is S. epidermidis ATCC 12228. As to the kind of experiment: MIC, standard agar-dilution test. Type of series: cell-based. Conditions: inoculum about 10^4 CFU/ml. The procedure:
as §1

A further series deals with S. aureus ATCC 6538. Briefly: MIC, standard agar-dilution test. Type of series: cell-based. The following applies: inoculum about 10^4 CFU/ml, 18-24 h at 37° C. The procedure:
as §1

For another series, the system named is E. coli SKF 12140. As to the kind of experiment: MIC, standard agar-dilution test. Conditions: inoculum about 10^4 CFU/ml. Type of series: cell-based. The procedure: as §1
[5] abbreviates: S. aureus TOUR + 30% bovine serum.

In the case of `CC(=O)N[C@@H]1[C@@H](O[C@H]2c3ccc(c(Cl)c3)Oc3cc4cc(c3O)Oc3ccc(cc3Cl)C[C@@H]3NC(=O)[C@@H](N)c5ccc(O)c(c5)Oc5cc(O)cc(c5)[C@@H](NC3=O)C(=O)N[C@@H]4C(=O)N[C@@H]3C(=O)N[C@H]2C(=O)N[C@@H](C(=O)O)c2cc(O)cc(O)c2-c2cc3ccc2O)O[C@@H](CO)[C@H](O)[C@H]1O` (stereo in doubt) [Antibiotic L 17046], in series [1], the “solubility in dimethylformamide, dimethylsulfoxide, propyleneglycol and methylcellosolve” value was “freely soluble”; the solubility in methanol result is listed as “slightly soluble”. In addition, the solubility in water entry in series [1] (water at pH>8.0) is reported as “freely soluble”.
Take `N[C@H]1C(=O)N[C@@H]2Cc3ccc(c(Cl)c3)Oc3cc4cc(c3O)Oc3ccc(cc3Cl)[C@@H](O)[C@@H]3NC(=O)[C@H](NC(=O)[C@@H]4NC(=O)[C@@H](NC2=O)c2cc(O)cc(c2)Oc2cc1ccc2O)c1ccc(O)c(c1)-c1c(O)cc(O)cc1[C@@H](C(=O)O)NC3=O` [Antibiotic L 17392, deglucoteicoplanin]: in [1], the “solubility in aqueous methanol, ethanol and acetone” value was “soluble”; the “solubility in ethyl alcohol and dimethylformamide” value is given as “slightly soluble”. For the same compound, the solubility in water entry in series [1] (water at a pH higher than 9) is “soluble”.
“N-benzyloxycarbonyl deglucoteicoplanin [Example 4]” had a pKa in [2] of 5.02.
The compound “deglucoteicoplanin 4-chloro-butyl ester [Example 9]” gave a pKa in series [2] of 6.60.
Compound “deglucoteicoplanin benzyl ester, hydrochloride [Example 3]” registered a pKa in [2] of 6.67. Also, the MIC against S. aureus TOUR (S. aureus TOUR (10^3 CFU/ml)) came to 0.4 µg/mL; with S. aureus TOUR (S. aureus TOUR (10^6 CFU/ml)) it was 0.4 µg/mL; in the series on S. aureus TOUR (setting [5]) it was 0.8 µg/mL; against S. faecalis ATCC 7080 it was 0.4 µg/mL; against S. pneumoniae UC 41 it was 0.2 µg/mL; in [3], 0.05 µg/mL. For the same compound, the results for the minimum inhibitory concentration (MIC) (in [4]; in the series with S. aureus ATCC 6538; in the series on E. coli SKF 12140) were 0.1 µg/mL, 0.4 µg/mL and 12.5 µg/mL, respectively.
Compound “deglucoteicoplanin n-butyl ester, hydrochloride [Example 1]” displayed a pKa in [2] of 6.57. Besides, the MIC with S. aureus TOUR (S. aureus TOUR (10^3 CFU/ml)) is 0.1 µg/mL; with S. aureus TOUR (S. aureus TOUR (10^6 CFU/ml)), 0.4 µg/mL; in the series with S. aureus TOUR (setting [5]), 0.4 µg/mL; against S. faecalis ATCC 7080, 0.2 µg/mL; in the series with S. pneumoniae UC 41, 0.1 µg/mL; in [3], 0.1 µg/mL. Moreover, the MIC in series [4] came out at 0.05 µg/mL; against S. aureus ATCC 6538 it was 0.05 µg/mL; with E. coli SKF 12140, 50 µg/mL.
Consider “deglucoteicoplanin n-octyl ester, hydrochloride [Example 2]”, for which the pKa in [2] is 6.82. The minimum inhibitory concentration (MIC) is 0.2 µg/mL against S. aureus TOUR (S. aureus TOUR (10^3 CFU/ml)); 0.8 µg/mL with S. aureus TOUR (S. aureus TOUR (10^6 CFU/ml)); 0.8 µg/mL in the series on S. aureus TOUR (setting [5]); 0.4 µg/mL in the series with S. faecalis ATCC 7080; 0.05 µg/mL against S. pneumoniae UC 41; 0.05 µg/mL in series [3]. Also, the MIC in [4] is 0.1 µg/mL; in the series on S. aureus ATCC 6538, 0.2 µg/mL; in the series with E. coli SKF 12140, above 100 µg/mL.
